Assay results published in ChEMBL document CHEMBL5550113, “Bioisoteres for carboxylic acids: From ionized isosteres to novel unionized replacements” (Bioorg Med Chem, 2024).

Key:
CDK12/Cyclin K = CDK12/Cyclin K (Homo sapiens, UniProt Q9NYV4); test: Inhibition of 6His-tagged wild type CDK12/cyclin K (unknown origin) infected in insect cells incubated for 1 hr by TR-FRET assay
[1] = Toxicity in po dosed Guinea pig assessed as effective dose; format: organism-based, Cavia porcellus; settings: in vivo
Cavia porcellus = organism: Cavia porcellus; test: Binding affinity to Guinea pig Leukotriene receptor; settings: filed as antagonist

Sequence of CDK12/Cyclin K (O75909 whole entry): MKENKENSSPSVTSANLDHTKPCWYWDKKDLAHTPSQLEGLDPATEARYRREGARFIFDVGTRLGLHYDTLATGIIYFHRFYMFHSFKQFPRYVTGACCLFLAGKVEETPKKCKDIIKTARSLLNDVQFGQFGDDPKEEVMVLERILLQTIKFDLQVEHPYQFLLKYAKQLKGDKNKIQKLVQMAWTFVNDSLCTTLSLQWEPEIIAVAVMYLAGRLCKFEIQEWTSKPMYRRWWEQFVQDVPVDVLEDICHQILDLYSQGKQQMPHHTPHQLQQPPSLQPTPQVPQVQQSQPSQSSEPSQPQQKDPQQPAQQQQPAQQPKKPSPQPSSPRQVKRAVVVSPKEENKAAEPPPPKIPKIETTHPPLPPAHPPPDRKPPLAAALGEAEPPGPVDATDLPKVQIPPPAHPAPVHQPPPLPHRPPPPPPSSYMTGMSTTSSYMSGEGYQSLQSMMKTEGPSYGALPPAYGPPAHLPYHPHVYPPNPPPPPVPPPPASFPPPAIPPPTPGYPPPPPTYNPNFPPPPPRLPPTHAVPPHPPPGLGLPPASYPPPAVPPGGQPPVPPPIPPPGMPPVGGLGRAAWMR
Sequence of CDK12/Cyclin K (Q9NYV4 whole entry): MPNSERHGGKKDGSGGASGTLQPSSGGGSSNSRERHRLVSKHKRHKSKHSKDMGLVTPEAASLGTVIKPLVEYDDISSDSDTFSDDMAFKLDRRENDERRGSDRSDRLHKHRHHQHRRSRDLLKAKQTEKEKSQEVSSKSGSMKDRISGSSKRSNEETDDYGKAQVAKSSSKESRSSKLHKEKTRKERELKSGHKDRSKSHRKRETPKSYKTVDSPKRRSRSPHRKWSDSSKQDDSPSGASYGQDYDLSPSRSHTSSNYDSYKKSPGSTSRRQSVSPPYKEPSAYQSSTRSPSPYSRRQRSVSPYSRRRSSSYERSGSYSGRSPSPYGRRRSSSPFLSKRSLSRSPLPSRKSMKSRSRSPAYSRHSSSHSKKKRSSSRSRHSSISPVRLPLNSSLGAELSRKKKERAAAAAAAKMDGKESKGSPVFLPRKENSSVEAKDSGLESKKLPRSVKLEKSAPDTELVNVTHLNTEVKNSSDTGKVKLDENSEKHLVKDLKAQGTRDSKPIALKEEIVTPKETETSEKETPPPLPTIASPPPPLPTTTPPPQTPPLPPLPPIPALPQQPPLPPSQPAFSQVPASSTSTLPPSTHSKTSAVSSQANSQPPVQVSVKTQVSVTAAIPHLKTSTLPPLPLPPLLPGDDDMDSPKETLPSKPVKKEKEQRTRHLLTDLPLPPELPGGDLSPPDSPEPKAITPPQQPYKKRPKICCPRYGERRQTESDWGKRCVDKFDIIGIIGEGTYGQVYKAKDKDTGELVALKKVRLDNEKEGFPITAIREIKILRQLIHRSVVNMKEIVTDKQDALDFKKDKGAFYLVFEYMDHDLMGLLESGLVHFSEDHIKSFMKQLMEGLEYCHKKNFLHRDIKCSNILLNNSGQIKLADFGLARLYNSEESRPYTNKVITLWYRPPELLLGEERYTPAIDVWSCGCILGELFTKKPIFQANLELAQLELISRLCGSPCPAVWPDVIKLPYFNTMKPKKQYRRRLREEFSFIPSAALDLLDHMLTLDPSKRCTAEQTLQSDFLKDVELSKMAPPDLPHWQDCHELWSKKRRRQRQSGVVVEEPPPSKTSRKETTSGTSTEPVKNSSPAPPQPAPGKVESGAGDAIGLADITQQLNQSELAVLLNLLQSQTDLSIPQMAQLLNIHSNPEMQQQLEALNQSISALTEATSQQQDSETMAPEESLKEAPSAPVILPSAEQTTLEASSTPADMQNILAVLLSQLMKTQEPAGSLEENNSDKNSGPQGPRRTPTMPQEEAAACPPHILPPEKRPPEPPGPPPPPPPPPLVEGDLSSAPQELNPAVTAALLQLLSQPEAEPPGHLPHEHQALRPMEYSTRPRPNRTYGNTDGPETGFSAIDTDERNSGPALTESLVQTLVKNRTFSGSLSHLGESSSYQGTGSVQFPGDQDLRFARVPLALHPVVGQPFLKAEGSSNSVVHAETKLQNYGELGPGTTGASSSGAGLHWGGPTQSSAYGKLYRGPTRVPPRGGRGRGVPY

`CC[C@H](CO)Nc1nc(NCc2ccn(-c3cccc(Cl)c3)n2)c2ncn(C(C)C)c2n1` showed an EC50 (CDK12/Cyclin K) of 44 nM.

For `CC[C@H](CO)Nc1nc(NCCCc2ccco2)c2ncn(C(C)C)c2n1`, the EC50 (CDK12/Cyclin K) was 603 nM.

Work on `CC[C@H](CO)Nc1nc(NCCCc2cccc(C)c2)c2ncn(C(C)C)c2n1` yielded an EC50 (CDK12/Cyclin K) of 35 nM.

For `CC[C@H](CO)Nc1nc(NCCCc2cccc(C)n2)c2ncn(C(C)C)c2n1`, the EC50 (CDK12/Cyclin K) was 36 nM.

With `CC[C@H](CO)Nc1nc(NCc2ccc3ccccc3c2)c2ncn(C(C)C)c2n1` the EC50 (CDK12/Cyclin K) was 60 nM.

`CC[C@H](CO)Nc1nc(NCc2ccc(-c3ccccn3)c(F)c2)c2ncn(C(C)C)c2n1` gave an EC50 (CDK12/Cyclin K) of 78 nM.

`COc1cc(C(=O)NS(=O)(=O)c2ccccc2C)ccc1Cc1cn(C)c2ccc(NC(=O)OC3CCCC3)cc12` [ZAFIRLUKAST] showed an ED50 [1] of 0.3 mg/kg.

`CC[C@H](CO)Nc1nc(NCc2nc3ccc(F)c(F)c3[nH]2)c2ncn(C(C)C)c2n1` showed an EC50 (CDK12/Cyclin K) of 41 nM.

`CC[C@H](CO)Nc1nc(NCCCc2ccc(Cl)c(Cl)c2)c2ncn(C(C)C)c2n1` showed an EC50 (CDK12/Cyclin K) of 21 nM.

For `CC[C@H](CO)Nc1nc(NCCCc2cccc(F)c2)c2ncn(C(C)C)c2n1`, the EC50 (CDK12/Cyclin K) was 46 nM.

Compound `CC[C@H](CO)Nc1nc(NCc2ccc(-c3ccc(C)s3)cc2)c2ncn(C(C)C)c2n1` has an EC50 (CDK12/Cyclin K) of 15 nM.

In the case of `CC[C@H](CO)Nc1nc(NCc2ccc(-c3ccccc3)cc2)c2ncn(C(C)C)c2n1`, the EC50 (CDK12/Cyclin K) is reported as 17 nM.

Work on `CC[C@H](CO)Nc1nc(NCc2ccc(-c3ccccn3)c(=O)[nH]2)c2ncn(C(C)C)c2n1` yielded an EC50 (CDK12/Cyclin K) of 21 nM.

`CC[C@H](CO)Nc1nc(NCCCc2ccnn2C)c2ncn(C(C)C)c2n1` showed an EC50 (CDK12/Cyclin K) of 246 nM.

With `COc1cc(C(=O)NS(=O)(=O)c2ccccc2)ccc1Cc1cn(C)c2ccc(NC(=O)OC3CCCC3)cc12` the ED50 [1] was 2.5 mg/kg and the pKb (Cavia porcellus) was 9.69.

`CC[C@H](CO)Nc1nc(NCCCc2ccccc2)c2ncn(C(C)C)c2n1` showed an EC50 (CDK12/Cyclin K) of 57 nM.

In the case of `CC[C@H](CO)Nc1nc(NCCCCCc2cccc3ccccc23)c2ncn(C(C)C)c2n1`, the EC50 (CDK12/Cyclin K) is reported as 182 nM.

Compound `CC[C@H](CO)Nc1nc(NCCCc2ccc(C)c(C)c2)c2ncn(C(C)C)c2n1` has an EC50 (CDK12/Cyclin K) of 18 nM.

Compound `CC[C@H](CO)Nc1nc(NCc2ccc(-c3ccncc3)nc2)c2ncn(C(C)C)c2n1` has an EC50 (CDK12/Cyclin K) of 28 nM.

With `CC[C@H](CO)Nc1nc(NCc2ccc(-c3ccncc3)cc2)c2ncn(C(C)C)c2n1` the EC50 (CDK12/Cyclin K) was 36 nM.
